In US20210059933A1, “HYDROGELS AS ORAL DELIVERY DOSAGE FORMS, METHODS OF MAKING AND USING SAME” (priority 2019, published 2021):

How the values were obtained:
[1] = Release of drug from drug-loaded disintegrating hydrogel into simulated gastric fluid, supersaturation by UV-vis; conditions: 2 hours, 150 rpm, hydrogel from 25% by volume acetal cross-linker, drug loading as in % wt drug
Description: A disintegrating hydrogel is first formed from 0.125 mL of a solution of dimethylformamide containing 25% by volume of the cross-linker triethylene glycol di[ethyl-1-methacryloyloxy poly(ethylene glycol) acetal] and 5% by volume of the photoinitiator 2-hydroxy-2-methylpropiophenone then purified by washing several times in ethanol. This disintegrating hydrogel is then transferred to the same solvent used to maximize the dissolution of the active pharmaceutical ingredient of interest. The hydrogel is transferred to a silicone mold and heated for a minimum amount of time to evaporate a majority of the solvent soaked into the hydrogel pores. Then about 0.1 mL of a solution of the active pharmaceutical ingredient solubilized in the preferred solvent is added to the silicone mold containing the hydrogel, which is allowed to swell in order to absorb the solution. Once absorbed, the solvent is removed in a vacuum oven in order to induce the crystallization of the active pharmaceutical ingredient in the hydrogel pores. The mass of the active pharmaceutical ingredient contained in the disintegrating hydrogel is determined experimentally then normalized by the combined mass of both components to quantify the weight fraction of the active pharmaceutical ingredient.
The hydrogel is added to the vial and allowed to dissolve over the course of 2 hours. The presence of the active pharmaceutical ingredient in the aqueous solution is monitored by ultraviolet-visible spectrometry to quantify the concentration relative to the inherent solubility of the active pharmaceutical ingredient without a hydrogel present. The ratio of the solubility achieved upon release from disintegrating hydrogels to the solubility achieved upon dissolution without disintegrating hydrogels is the supersaturation.

[2] = drug by itself; cited from earlier work
[3] = lipophilic partition coefficient of the drug; cited from earlier work
[4] = Dissolution of drug encapsulated in acid-hydrolysable hydrogels in 0.1M HCl solution (pH=1); assay type: physicochemical; conditions: immediate release acid-hydrolysable hydrogels
Text: FIG. 3 is a dissolution profile of vitamin E (tocopherol) encapsulated at various drug loading levels in hydrogels composed of 25% by volume acetal cross-linker into a 0.1M HCl solution (pH=1).
The hydrogel labelled acetal hydrogel [w/ 10% surfactant] {w/ 15% surfactant} were synthesized by polymerizing a pre-cursor solution containing 25% [20%] {20%} by volume of the triethylene glycol di[ethyl-1-methacryloyloxy poly(ethylene glycol) acetal] cross-linker, 0% [3.9%] {3.9%} by volume of methyl methacrylate, 0% [6.1%] {6.1%} by volume of dimethylaminoethyl methacrylate, and 0% [10%] {15%} by volume of a hydrolytically hydrolysable surfactant monomer: acetaldehyde-(stearyl PEG-20 ether)-(acrylate ethylene glycol) acetal. Each drug substance is loaded into the pores of the hydrogel by first dissolving in ethanol and adding the organic solution into a silicone mold containing the pre-formed and washed hydrogel followed by evaporation of the solvent. Sufficient drug substance solution is added to the mold to reach a range of drug loading values.

supersaturation level of final concentration [4] | Molecule | X_sat (supersaturation: ratio of solubility achieved upon release from disintegrating hydrogels to solubility without hydrogels) [1] | C_s (aqueous solubility) [2] [µg/mL] | log P [3]
 | COC1=C(OC)C(=O)C(C/C=C(\C)CC/C=C(\C)CC/C=C(\C)CC/C=C(\C)CC/C=C(\C)CC/C=C(\C)CC/C=C(\C)CC/C=C(\C)CC/C=C(\C)CCC=C(C)C)=C(C)C1=O [Coenzyme Q10] | 69.1 | 0.2 | 9.9
 | CCCSc1ccc2nc(NC(=O)OC)[nH]c2c1 [albendazole] | 2.01 | 22.8 | 2.7
 | C[C@@H]1[C@H](O)[C@@H](C)/C=C/C=C/C=C/C=C/C=C/C=C/C=C/[C@H](O[C@@H]2O[C@H](C)[C@@H](O)[C@H](N)[C@@H]2O)C[C@@H]2O[C@](O)(C[C@@H](O)C[C@@H](O)[C@H](O)CC[C@@H](O)C[C@@H](O)CC(=O)O[C@H]1C)C[C@H](O)[C@H]2C(=O)O [amphotericin b] | 13.8 | 82 | 0.8
 | C=C(C)[C@@H]1CCC(C)=C[C@H]1c1c(O)cc(CCCCC)cc1O [cannabidiol (CBD), cannabidiol] | 22.3 |  | 
 | CC(C)/N=c1\cc2n(-c3ccc(Cl)cc3)c3ccccc3nc-2cc1Nc1ccc(Cl)cc1 [clofazimine] |  | 0.23 | 
 | CC/C=C\C/C=C\C/C=C\C/C=C\C/C=C\CCCC(=O)O [eicosapentaenoic acid] |  | 0.29 | 6.1
 | CCCCN(CCCC)CC(O)c1cc(Cl)cc2c1-c1ccc(Cl)cc1/C2=C/c1ccc(Cl)cc1 (centres unmarked) [lumefantrine] |  | 0.04 | 8.34
 | C[C@H]1C[C@@H]2[C@H]([C@@H](O)C[C@@]3(C)[C@H]2CC[C@]3(O)C(=O)CO)[C@@]2(C)C=CC(=O)C=C12 [methylprednisolone] |  |  | 1.53
 | Cc1cn(-c2cc(NC(=O)c3ccc(C)c(Nc4nccc(-c5cccnc5)n4)c3)cc(C(F)(F)F)c2)cn1 [nilotinib] |  | 2.01 | 4.51
 | Cc1ccc(Nc2nccc(N(C)c3ccc4c(C)n(C)nc4c3)n2)cc1S(N)(=O)=O [pazopanib] |  | 43.3 | 3.59
≤ 11 times the intrinsic solubility | CC(=O)[C@H]1CC[C@H]2[C@@H]3CCC4=CC(=O)CC[C@]4(C)[C@H]3CC[C@]12C [progesterone] |  | 5.5 | 
up to 74 times the intrinsic solubility | tocopherol [tocopherol (vitamin E)] |  |  | 
